Reference: patent US8513260B2, “Pyrazinylpyrazoles” (Bayer CropScience AG, priority 2009, dated 2013)
Where two headings read alike, the source gives them in different places.

What was measured:
[1] = logP by HPLC on reversed-phase columns (C 18), EEC Directive 79/831 Annex V.A8; type: physicochemical; conditions: reversed-phase C18 HPLC column, read-out: log P
Text: [table] The calibration is effected with unbranched alkan-2-ones (having 3 to 16 carbon atoms) with known logP values (logP values determined on the basis of the retention times by linear interpolation between two successive alkanones).

[2] = system: adult engorged Boophilus microplus females of the SP-resistant Parkhurst strain; experiment: Boophilus microplus (dip); type: in vivo; conditions: after 7 days, laying of fertile eggs; for pest or weed control at 100 ppm: Rhipicephalus microplus, 168 h, read-out: efficacy; for efficacy: 100 ppm
Procedure: Boophilus microplus (dip)
Test animals: adult engorged Boophilus microplus females of the SP-resistant Parkhurst strain
Solvent: dimethyl sulphoxide
10 mg of active ingredient are dissolved in 0.5 ml of dimethyl sulphoxide. For the purpose of preparing a suitable formulation, the active ingredient solution is diluted with water to the concentration desired in each case. This active ingredient preparation is pipetted into tubes. 8-10 ticks are transferred into a further tube with holes. The tube is immersed into the active ingredient formulation, and all ticks are completely wetted. After the liquid has run out, the ticks are transferred onto filter discs in plastic dishes and stored in a climate-controlled room. The activity is assessed after 7 days by laying of fertile eggs. Eggs whose fertility is not outwardly visible are stored in glass tubes in a climate-controlled cabinet until the larvae hatch. Efficacy of 100% means that none of the ticks has laid any fertile eggs.

Boophilus microplus = Boophilus microplus test (BOOPMI injection); type: in vivo; conditions: 20 μg animal, injection into the abdomen, after 7 days, laying of fertile eggs; for pest or weed control at 0.02 mg: Rhipicephalus microplus, 168 h, read-out: efficacy
Procedure: Boophilus microplus Test (BOOPMI Injection) Solvent: dimethyl sulphoxide To prepare an appropriate active ingredient formulation, 10 mg of active ingredient are mixed with 0.5 ml of solvent and the concentrate is diluted with solvent to the desired concentration. The active ingredient solution is injected into the abdomen (Boophilus microplus), and the animals are transferred into dishes and stored in a climate-controlled room. The efficacy is assessed by laying of fertile eggs. After 7 days, the efficacy in % is determined. 100% means that none of the ticks has laid any fertile eggs.

Lucilia cuprina larvae = experiment: Lucilia cuprina test (LUCICU); type: in vivo; conditions: 48 h, treated horse meat, after 2 days, read-out: efficacy (kill)
Procedure: (§1) Lucilia cuprina Test (LUCICU) Solvent: dimethyl sulphoxide To prepare an appropriate active ingredient formulation, 10 mg of active ingredient are mixed with 0.5 ml of dimethyl sulphoxide and the concentrate is diluted with water to the desired concentration. Vessels containing horse meat treated with the active ingredient preparation of the desired concentration are populated with about 20 Lucilia cuprina larvae. After 2 days, the kill in % is determined. 100% means that all of the larvae have been killed; 0% means that none of the larvae have been killed.

adult Musca domestica = experiment: Musca domestica test; type: in vivo; conditions: after 2 days
Procedure: as §1, with “Musca domestica” for “Lucilia cuprina”, “Test” for “Test (LUCICU)”, “a sponge” for “horse meat”, “adult Musca domestica.” for “about 20 Lucilia cuprina larvae.”, “flies” for “larvae”

[3] = system: larvae of the mustard beetle (Phaedon cochleariae); experiment: Phaedon test (PHAECO spray treatment); type: in vivo; conditions: Chinese cabbage discs, after 7 days; for pest or weed control at 500 g/ha: Phaedon cochleariae, 168 h, read-out: efficacy; for efficacy: 500 g/ha
Procedure: Phaedon Test ([…] Spray Treatment) Solvent: 78.0 parts by weight of acetone • • 1.5 parts by weight of dimethylformamide Emulsifier: 0.5 part by weight of alkylaryl polyglycol ether To prepare an appropriate active ingredient preparation, 1 part by weight of active ingredient is mixed with the stated amounts of solvent and emulsifier, and the concentrate is diluted with emulsifier-containing water to the desired concentration. Discs of Chinese cabbage (Brassica pekinensis) are sprayed with an active ingredient preparation of the desired concentration and, after drying, populated with larvae of the mustard beetle (Phaedon cochleariae). After 7 days, the efficacy in % is determined. 100% means that all beetle larvae have been killed; 0% means that none of the beetle larvae have been killed.

[4] = system: red spider mite (Tetranychus urticae); experiment: Tetranychus test, OP-resistant (TETRUR spray treatment); type: in vivo; conditions: bean leaf discs, after 6 days; for pest or weed control at 500 g/ha: Tetranychus urticae, foliar, 144 h, read-out: efficacy
Procedure: Tetranychus Test, OP-Resistant (TETRUR Spray Treatment)
Solvent: 78.0 parts by weight of acetone • • 1.5 parts by weight of dimethylformamide
Emulsifier: 0.5 part by weight of alkylaryl polyglycol ether
To prepare an appropriate active ingredient preparation, 1 part by weight of active ingredient is mixed with the stated amounts of solvent and emulsifier, and the concentrate is diluted with emulsifier-containing water to the desired concentration. Discs of bean leaves (Phaseolus vulgaris) infested by all stages of the red spider mite (Tetranychus urticae) are sprayed with an active ingredient preparation of the desired concentration. After 6 days, the efficacy in % is determined. 100% means that all spider mites have been killed; 0% means that none of the spider mites have been killed.

[5] = system: green peach aphid (Myzus persicae); experiment: Myzus test (MYZUPE spray treatment); type: in vivo; conditions: Chinese cabbage discs, after 6 days; for efficacy: 500 g/ha
Procedure: Myzus Test (MYZUPE Spray Treatment) Solvent: 78 parts by weight of acetone • • 1.5 parts by weight of dimethylformamide Emulsifier: 0.5 part by weight of alkylaryl polyglycol ether To prepare an appropriate active ingredient preparation, 1 part by weight of active ingredient is mixed with the stated amounts of solvent and emulsifier, and the concentrate is diluted with emulsifier-containing water to the desired concentration. Discs of Chinese cabbage (Brassica pekinensis) infested by all stages of the green peach aphid (Myzus persicae) are sprayed with an active ingredient preparation of the desired concentration. After 6 days, the efficacy in % is determined. 100% means that all of the aphids have been destroyed; 0% means that none of the aphids have been destroyed.

[6] = system: unfed adult fleas (Ctenocephalides felis); experiment: Ctenocephalides felis test (CTECFE); type: in vivo; conditions: 100 ppm in citrated cow's blood, after 2 days; for pest or weed control at 100 ppm: Ctenocephalides felis, 48 h, read-out: efficacy (kill)
Procedure: Ctenocephalides felis Test ([…]) Solvent: 1 part by weight of dimethyl sulphoxide For the purpose of preparing an appropriate active ingredient formulation, 10 mg of active ingredient are mixed with 0.5 ml of dimethyl sulphoxide. A portion of the concentrate is diluted with citrated cow's blood and the desired concentration is established. About 20 unfed adult fleas (Ctenocephalides felis) are introduced into a chamber closed at the top and bottom with gauze. A metal cylinder, the bottom of which is closed with Parafilm, is placed onto the chamber. The cylinder contains the blood/active ingredient preparation, which can be imbibed by the fleas through the Parafilm membrane. After 2 days, the kill in % is determined. 100% means that all fleas have been killed; 0% means that none of the fleas have been killed.

[7] = system: caterpillars of the armyworm (Spodoptera frugiperda); experiment: Spodoptera frugiperda test (SPODFR spray treatment); type: in vivo; conditions: maize leaf discs, after 7 days; for efficacy: 500 g/ha; for pest or weed control at 500 g/ha: Spodoptera frugiperda, foliar, 168 h, read-out: efficacy
Procedure: Spodoptera frugiperda Test (SPODFR Spray Treatment) Solvent: 78.0 parts by weight of acetone • • 1.5 parts by weight of dimethylformamide Emulsifier: 0.5 part by weight of alkylaryl polyglycol ether To prepare an appropriate active ingredient preparation, 1 part by weight of active ingredient is mixed with the stated amounts of solvent and emulsifier, and the concentrate is diluted with emulsifier-containing water to the desired concentration. Discs of maize leaves (Zea mays) are sprayed with an active ingredient preparation of the desired concentration and, after drying, populated with caterpillars of the armyworm (Spodoptera frugiperda). After 7 days, the efficacy in % is determined. 100% means that all caterpillars have been killed; 0% means that none of the caterpillars have been killed.

[8] = pH 2.7, * LC-MS, acidic range pH 2.7, 0.1% aqueous formic acid and acetonitrile

chromatographic logP ([1]; pH 2.3, ** acidic range pH 2.3, 0.1% aqueous phosphoric acid and acetonitrile)	chromatographic logP [1, 8]	Structure (SMILES)	pest or weed control at 100 ppm [2]	pest or weed control at 0.02 mg (Boophilus microplus)	pest or weed control at 100 ppm (Lucilia cuprina larvae)	efficacy (kill) (adult Musca domestica; 100 ppm)	pest or weed control at 500 g/ha [3]	pest or weed control at 500 g/ha ([4]; 500 g/ha)	efficacy [2]	efficacy (Boophilus microplus)	efficacy [5]	efficacy (kill) [6]	efficacy [3]	efficacy [7]	efficacy ([4]; 500 g/ha)	pest or weed control at 100 ppm [6]	pest or weed control at 500 g/ha ([5]; Myzus persicae, 144 h, read-out: efficacy)	pest or weed control at 500 g/ha [7]	efficacy (kill) (adult Musca domestica; 20 ppm)	efficacy ([4]; 100 g/ha)
3.6	–	CCOc1nccnc1-n1nc(C(F)(F)F)c(-c2ccc(Br)cc2)c1N [Ex. 5]	100%	100%	100%	80%	100%	80%	–	–	–	–	–	–	–	–	–	–	–	–
–	–	C=Cc1nn(-c2nccnc2OC)c(N)c1-c1cc(Cl)cc(Cl)c1 [Ex. 8]	–	–	–	–	–	–	90%	100%	100%	–	–	–	–	–	–	–	–	–
–	–	COc1nccnc1-n1nc(C(F)(F)C(F)(F)F)c(-c2cc(Cl)cc(C(F)(F)F)c2)c1N [Ex. 15]	–	–	–	95%	–	–	100%	100%	100%	95%	100%	100%	100%	–	–	–	–	–
–	–	COc1nccnc1-n1nc(C(F)(F)Cl)c(-c2cc(Cl)cc(C(F)(F)F)c2)c1N [Ex. 17]	–	–	–	100%	–	–	100%	100%	100%	100%	100%	100%	100%	–	–	–	–	–
–	–	COc1nccnc1-n1nc(C(F)(F)F)c(-c2ccc(Cl)c(C(F)(F)F)c2)c1N [Ex. 18]	–	–	–	–	–	–	100%	100%	90%	–	100%	83%	100%	–	–	–	–	–
–	–	COc1nccnc1-n1nc(C(C)(F)F)c(-c2ccc(Cl)c(C(F)(F)F)c2)c1N [Ex. 20]	–	–	–	–	–	–	100%	100%	100%	–	100%	100%	100%	–	–	–	–	–
–	4.1	COc1nccnc1-n1nc(C(F)(F)F)c(-c2cc(Br)cc(Br)c2)c1N [Ex. 22]	95%	100%	100%	–	100%	100%	–	–	–	–	–	–	–	95%	100%	100%	–	–
–	–	COc1nccnc1-n1nc(C(F)(F)C(F)(F)OC)c(-c2cc(Cl)cc(C(F)(F)F)c2)c1N [Ex. 47]	–	–	–	80%	–	–	100%	100%	80%	100%	100%	100%	100%	–	–	–	–	–
–	3.8	COc1cc(-c2c(C(F)(F)C(F)(F)F)nn(-c3nccnc3OC)c2N)cc(Cl)c1OC [Ex. 51]	100%	100%	100%	–	100%	80%	–	–	–	–	–	–	–	100%	–	100%	–	–
–	–	COc1nccnc1-n1nc(C(F)(F)F)c(-c2cc(Br)c3c(c2)OCCCO3)c1N [Ex. 131]	–	–	–	100%	–	–	–	100%	–	100%	100%	100%	100%	–	–	–	–	–
–	–	COc1nccnc1-n1nc(C(F)(F)F)c(-c2cc(Br)c3c(c2)OCCO3)c1N [Ex. 132]	–	–	–	80%	–	–	100%	100%	–	100%	100%	100%	80%	–	–	–	–	–
–	–	COc1nccnc1-n1nc(C(F)(F)F)c(-c2cc(Cl)c3c(c2)OCCO3)c1N [Ex. 133]	–	–	–	–	–	–	95%	100%	–	100%	100%	100%	–	–	–	–	80%	90%
–	3.27	COc1nccnc1-n1nc(C(F)(F)F)c(-c2cc(I)c3c(c2)OCO3)c1N [Ex. 139]	–	100%	100%	–	100%	80%	–	–	–	–	–	–	–	100%	–	100%	–	–
–	3.22	COc1cc(-c2c(C(F)(F)F)nn(-c3nccnc3OC)c2N)cc(Cl)c1OC [Ex. 141]	–	100%	100%	–	100%	100%	–	–	–	–	–	–	–	100%	–	100%	80%	–
